Tests used:
Format in all cases: in vivo, BALB/c mice
[1] = Renal clearance kinetics (copper content in urine) of GS-CuNPs and Cu(II)-GSSG complex
Method: (§1) FIGS. 2A to 2E show (A) Ex vivo fluorescent images of urine of control mice or mice injected with luminescent GS-CuNPs (λex=510 nm, λem=790 nm); (B) Copper contents (n=6) in the urine at different times post injection (p.i.); (C) Biodistribution of Cu(II)-GSSG complex and luminescent GS-CuNPs in BALB/c mice (n=6) 24 h after the tail-vein injection; (D) Liver-tourine ratios of Cu(II)-GSSG complex and GS-CuNPs at 24 h p.i; (E) Pharmacokinetics (n=3) of the renal clearable Cu(II)-GSSG complex and luminescent GS-CuNPs in 24 h p.i.
Although “being small” is generally seen as an efficient approach to boost the clearance of biomaterials from the body, the avidity between materials and serum proteins also plays an important role in the excretion. Seemingly a dilemma, it is hard to know which factors in the renal excretion of GS-CuNPs and Cu(II)-GSSG complex are reliably important. As such, the renal clearance kinetics and biodistribution of GS-CuNPs and Cu(II)-GSSG complex were evaluated in BALB/c mice (FIGS. 2A and 2B). For GS-CuNPs, 78.5±3.5% of injected copper was excreted from the body into the urine after 24 h p.i., and over 60% of copper was actually eliminated from the body in the first 2 h p.i (FIG. 2B).

[2] = Biodistribution of Cu(II)-GSSG complex and GS-CuNPs after tail-vein injection; conditions: 24 h after tail-vein injection, background copper deducted
Method: as §1
(§2) The detailed biodistribution studies of mice injected with GS-CuNPs and Cu(II)-GSSG complexes were consistent with their renal clearance profiles (FIG. 2C). In view of the background of copper, the average copper contents in the various organs/tissues and urine from three BALB/c mice have been deducted. […] However, compared to free Cu ions that often bind to caeruloplasmin and hephaestin and mainly accumulate in the liver, both GS-CuNPs and Cu(II)-GSSG complexes had much lower accumulation in RES, which was because GSH minimized the serum protein absorption and render them the efficient renal clearance. […] As a result, liver-to-urine ratio (−0.16) of CuNPs is more than 4 times lower than that of Cu(II)-GSSG complex (FIG. 2D).

[3] = Blood pharmacokinetics of Cu(II)-GSSG complex and GS-CuNPs; conditions: 24 h p.i.
Method: as §1, §2

## Cu(II)-GSSG complex
[1]; after 2 h
  additional increase in urine excretion of copper metal: −18%
[1]; at 2 h p.i.
  copper found in the urine: 22 % ID
[2]
  copper found in the liver: 29.6±8.1 % ID
  copper found in the spleen: ~0.1 % ID
[3]
  distribution half-life t½α: 0.228 ± 0.0167 h
  terminal elimination half-life (t½β): 4.93 ± 0.94 h

Source: patent publication US20140099256A1, “RADIOACTIVE LUMINESCENT NANOPARTICLE COMPOSITIONS” (The Board of Regents of the University of Texas System, priority 2012, published 2014)
